Data from ChEMBL document CHEMBL1158211, “Cyclic peptides from higher plants. 24.1 yunnanin C, a novel cyclic heptapeptide from Stellaria yunnanensis” (J Nat Prod, 1996).
In brackets after ≈: the same amount, converted by molar mass. Residues, ends and D or L forms follow the SMILES beside them.

System: P388
Assay: Cytotoxicity against mouse P388 cells after 48 hrs by MTT assay
Assay type: functional, cell-based
Settings: P388, 48 h

O=C1CNC(=O)[C@H](Cc2ccc(O)cc2)NC(=O)CNC(=O)[C@@H]2CCCN2C(=O)[C@H](Cc2ccccc2)NC(=O)[C@@H]2CCCN2C(=O)CN1 [YUNNANIN A] (HELM PEPTIDE1{F.P.G.Y.G.G.P}$PEPTIDE1,PEPTIDE1,1:R1-7:R2$$$V2.0)
IC50: 2.1 µg/mL (≈ 3.11 µM)

CC[C@H](C)[C@@H]1NC(=O)CNC(=O)[C@@H]2CCCN2C(=O)[C@H](CO)NC(=O)[C@H](Cc2ccc(O)cc2)NC(=O)[C@H](Cc2ccccc2)NC(=O)CNC1=O [YUNNANIN C] (HELM PEPTIDE1{F.Y.S.P.G.I.G}$PEPTIDE1,PEPTIDE1,1:R1-7:R2$$$V2.0)
IC50: 2.2 µg/mL (≈ 3.05 µM)
